{"source": "patent US20240268372A1", "about": "“Methods and Compositions for Extending Organ and Tissue Preservation” (The General Hospital Corporation, priority 2021, published 2024)", "key": {"rat livers [1]": {"tested_on": "rat livers", "assay": "Initial partial freezing protocol of rat livers at −6° C., SNMP recovery", "conditions": "glycerol 6% vol/vol with Snomax 1 g/L, 3-OMG 200 mM, PEG 5%"}, "rat livers [2]": {"tested_on": "rat livers", "assay": "Partial freezing of rat livers with 12% glycerol with or without ice modulators, SNMP recovery", "source_text": "Experimental design: FIG. 39 outlines the rat liver partial freezing protocol in eight consecutive steps: (1) liver procurement, (2) preconditioning during SNMP, (3) CPA preloading during hypothermic machine perfusion (HMP), (4) loading of final storage solution and ice modulators during HMP, (5) partial freezing of rat liver, (6) thawing of rat liver, (7) unloading of CPAs during HMP, and (8) functional recovery of frozen rat livers during SNMP.\nWithin this protocol, we first compared partially frozen livers at −10° C. (n=4 livers) and −15° C. (n=9 livers) with 12% glycerol. Upon finding minimal differences between these two groups, we combined them as a control and compared them to livers partially frozen with 0.5 mg/ml (0.05% w/v) of AFGP (n=4 livers) or 0.1% X-1000/0.2% Z-1000 (total, 0.3% w/v; n=4 livers) ice modulating agents added to the preservation solution. After freezing, liver viability on SNMP was compared between the 12% glycerol control group and the two ice modulated groups.\nPartial freezing protocol: The rat liver perfusion system involved perfusion through the cannulated portal vein (PV) with regulation of pressure, flow, and temperature. Detailed set-up of the perfusion system has been previously described (see, e.g., ref. 34). The total rat hepatectomy protocol was approved by the Institutional Animal Care and Use Committee (IACUC) of Massachusetts General Hospital (Boston, MA). Livers were procured from male Lewis rats (250-300 g, age 10-12 weeks. Charles River Laboratories, Wilmington, MA) (FIG. 39, step 1). The bile duct was isolated and cannulated, and the rats were heparinized with 30U sodium heparin. PV splenic and gastric branches, as well as the hepatic artery were ligated prior to cannulation. The PV was subsequently cannulated with a 16-gauge catheter and immediately flushed with 40 ml of heparinized saline (1000U/ml at room temperature). The liver was then freed from all peritoneal attachments, flushed with an additional 20 ml of heparinized saline. After procurement, the liver was weighed, and machine perfusion was immediately initiated.\nPreconditioning during SNMP was initiated at 21° C. with a flow rate of 5 ml/min (FIG. 39, step 2). […] The rat livers were perfused for 1 hour with 500 ml of preconditioning solution including Williams E, 200 U/l of insulin, 2% w/v PEG, 50 g/L BSA, 100 mM 3-O-methylglucose (3-OMG), 10,000 U/l of heparin, 24 mg/L of dexamethasone, 25 mg/ml of hydrocortisone, 40,000 μg/l of penicillin, and 40,000 U/l of streptomycin and sodium bicarbonate as needed to maintain a physiological pH (see Table 9 for composition of all solutions).\nAfter 1 hour of preconditioning during SNMP, the temperature was decreased to 4° C. at a rate of ˜1° C./min. Flow rates were gradually adjusted as necessary to ensure a maximum perfusion pressure of 3-5 mmHg during HMP. The SNMP preconditioning solution was switched to 500 ml CPA preloading solution at 4° C. (including Williams E, 200 U/l of insulin, 2% PEG, 50 g/L BSA, 100 mM 3-OMG, 30 mM raffinose, 3% hydroxyethyl starch (HES), 6% glycerol, 4000 U/l of heparin, 24 mg/l of dexamethasone, 25 mg/ml of hydrocortisone, 40,000 μg/l of penicillin, 40,000 U/l of streptomycin, and sodium bicarbonate as needed to maintain a physiological pH) (FIG. 39, step 3; Table 9). HMP was continued for 1 hour to ensure complete equilibration of solution throughout the liver parenchyma. […]"}, "[3]": {"conditions": "after SNMP recovery, pooled 1 and 5 days"}}, "data": [{"smiles": "OCC(O)CO", "note": "[GLY, glycerol]", "values": [{"measurement": "vascular resistance (mean±SD)", "setting": "rat livers [1]", "result": "0.11±0.05", "unit": "mmHg*min/ml*g"}, {"measurement": "edema", "setting": "rat livers [1]; one-step hand syringe loading", "result": "> 60", "unit": "%"}, {"measurement": "mean perfusate lactate", "setting": "rat livers [2]; 12% glycerol only, pooled 1 and 5 days, at time zero", "result": "1.17 ± 0.61", "unit": "mmol/L"}, {"measurement": "function of livers frozen at −10° C. vs −15° C. (perfusion metrics, weight gain, ATP, EC)", "setting": "rat livers [2]; 12% glycerol, pooled 1 and 5 days", "result": "not functionally different"}, {"measurement": "H&E staining of liver parenchyma", "setting": "rat livers [2]; after 1 and 5 day partial freezing", "result": "sinusoidal damage and compression, peri-portal endothelial destruction"}, {"measurement": "TUNEL staining", "setting": "rat livers [2]; after 1 and 5 days of frozen storage", "result": "remarkably less TUNEL staining"}, {"measurement": "mean ATP", "setting": "rat livers [2]; [3]", "result": "0.187 ± 0.075", "unit": "µg/mL"}, {"measurement": "mean energy charge (EC), (ATP+1/2ADP)/(ATP+ADP+AMP)", "setting": "rat livers [2]; [3]", "result": "0.066±0.032"}, {"measurement": "final mean weight gain", "setting": "rat livers [2]; end of SNMP recovery vs weight after procurement, pooled 1 and 5 days", "result": "26.9±15.3", "unit": "%"}, {"measurement": "mean vascular resistance", "setting": "rat livers [2]; pooled 1 and 5 days, at 0 hours", "result": "0.528±0.39", "unit": "mmHg/ml/min"}, {"measurement": "mean perfusate potassium", "setting": "rat livers [2]; pooled 1 and 5 days, at 1 hour", "result": "6.5 ± 1.01", "unit": "mmol/L"}]}]}
